One data set concerns the target PD-1/PD-L1 (Homo sapiens (Human), UniProt Q9NZQ7). Briefly: PD-1/PD-L1 Binding Assay (Alphascreen). An outline of the steps:
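PD-1/PD-L1 binding detected by anti-6×His acceptor and streptavidin donor beads after 120 min in the dark at 25 °C. Beforehand, the two proteins were incubated 15 min at 25 °C with inhibitor at 0.015–300 nM (1% DMSO). IC50 comes from a log concentration–response curve.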
In general terms: In Alpha technology, singlet oxygen from a donor bead excites a nearby acceptor bead.

The nature of data set [1]: Pharmacokinetic Assay, single oral dose 100 mg/kg (Table 11). In kind it is in vivo. Conditions: mouse, C57 female mice, oral (intragastric), plasma. On the procedure: Adult C57 female mice were received to single-dose of the test compounds with […], 10% Kolliphor^@HS 15 and 80% saline as excipients, the mice (n=9) were giving oral administration (intragastric administration) with the compounds at a dose of 100 mg/kg. Time of blood collection: 15 min, 30 min, 1 h, 2 h, 4 h, 7 h, 24 h. Approximately 0.1 mL of whole blood was collected from retro-orbital venous plexus of 3 mice at each time point, and placed into tubes that contained K2-EDTA as an anticoagulant. The whole blood was centrifuged at 4° C. and 4000 rpm for 10 min. The plasma was transferred into centrifuge tubes, and stored at −20° C. until being analyzed. Concentrations of test compounds in the plasma samples were analyzed with liquid chromatography-tandem mass spectrometry (LC-MS/MS). Plasma concentration-time data of individual animals was analyzed using Microsoft Excel 2010. Non-compartmental model was introduced in concentration analysis. The pharmacokinetic parameters of the test compounds were calculated using WinNonlin (version 4.1; Pharsight) software.

A word on the IC50: it is the concentration that inhibits the measured activity by half. Low readings indicate inhibition by little substance, high ones a need for much substance. A word on the AUC: it is the area under the concentration-time curve, a measure of exposure. The low end stands for low exposure, the high end for high exposure. In general, Cmax refers to the highest concentration seen after dosing. As usually defined, the Tmax is the time at which the peak concentration occurs. For orientation: half-life means the time needed for the level to fall by half in the phase considered. A higher half-life goes with slow loss.

PD-1/PD-L1, sequence (Q9NZQ7 19-238): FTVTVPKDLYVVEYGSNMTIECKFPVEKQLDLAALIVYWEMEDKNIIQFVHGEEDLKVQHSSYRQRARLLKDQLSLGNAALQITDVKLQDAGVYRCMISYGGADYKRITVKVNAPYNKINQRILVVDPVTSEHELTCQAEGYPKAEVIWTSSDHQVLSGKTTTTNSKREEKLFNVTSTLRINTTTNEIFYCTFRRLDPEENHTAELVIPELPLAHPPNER

Turning to `Cc1c(-c2nc3cc(CN4CCC[C@H]4C(=O)O)c(OC(F)F)cc3o2)cccc1-c1cccc(-c2nc3cc(CN4CCCC4)cc(C(F)(F)F)c3o2)c1C` [Example 100, ((6-(difluoromethoxy)-2-(2,2′-dimethyl-3′-(5-(pyrrolidin-1-ylmethyl)-7-(trifluoromethyl)benzo[d]oxazol-2-yl)-[1,1′-biphenyl]-3-yl)benzo[d]oxazol-5-yl)methyl)-L-proline], the IC50 at PD-1/PD-L1 (range symbols) lay within 0.1 to 5 nM. Also, in data set [1], the AUC worked out at 235 µg·h/mL, the Cmax came out at 18900 ng/mL, the Tmax was found to be 4 h and the half-life was 10.5 h.
Taken in the same sequence, the figures for `Cc1c(Nc2nccc3cc(CN4CCC[C@@]4(C)C(=O)O)cnc23)cccc1-c1cccc(-c2nc3cc(CN4CCC[C@H]4C(=O)O)c(OC(F)F)cc3o2)c1C` [Example 171, (S)-1-((8-((3′-(5-(((S)-2-carboxypyrrolidin-1-yl)methyl)-6-(difluoromethoxy)benzo[d]oxazol-2-yl)-2,2′-dimethyl-[1,1′-biphenyl]-3-yl)amino)-1,7-naphthyridin-3-yl)methyl)-2-methylpyrrolidine-2-carboxylic acid] were 0.1 to 5 nM, 3.47 µg·h/mL, 965 ng/mL, 1 h and 3.66 h.
`Cc1c(-c2nc3cc(CN4CCC[C@H]4C(=O)O)c(OC(F)F)cc3o2)cccc1-c1cccc(-c2nc3cc(CN4CCC(C)C4)cc(C(F)(F)F)c3o2)c1C` (stereo partly drawn) [Example 88, ((6-(difluoromethoxy)-2-(2,2′-dimethyl-3′-(5-((3-methylpyrrolidin-1-yl)methyl)-7-(trifluoromethyl)benzo[d]oxazol-2-yl)-[1,1′-biphenyl]-3-yl)benzo[d]oxazol-5-yl)methyl)-L-proline] came in with an IC50 at PD-1/PD-L1 (range symbols) of 0.1 to 5 nM. In addition, in data set [1], the AUC turned out to be 2020 µg·h/mL, the highest level (Cmax) was 117000 ng/mL and the Tmax was found to be 24 h.
The compound `Cc1c(-c2nc3cc(CN4CCC[C@H]4C(=O)O)c(OC(F)F)cc3o2)cccc1-c1cccc(-c2nc3cc(CN4CCCC4)c(OC(F)F)cc3o2)c1C#N` [Example 65, ((2-(2′-cyano-3′-(6-(difluoromethoxy)-5-(pyrrolidin-1-ylmethyl)benzo[d]oxazol-2-yl)-2-methyl-[1,1′-biphenyl]-3-yl)-6-(difluoromethoxy)benzo[d]oxazol-5-yl)methyl)proline] yielded an IC50 at PD-1/PD-L1 (numeric values) of 1.3 nM. Besides, in data set [1], the AUC is 40.4 µg·h/mL, the highest level (Cmax) was 2460 ng/mL, the Tmax amounted to 4 h and the half-life was 10.7 h.
Taken in the same sequence, the figures for `Cc1c(Nc2nccc3cc(CN4CCC(O)C4)cnc23)cccc1-c1cccc(-c2nc3cc(CN4CCC[C@H]4C(=O)O)c(OC(F)F)cc3o2)c1C` (stereo partly drawn) [Example 175, ((6-(difluoromethoxy)-2-(3′-((3-((3-hydroxypyrrolidin-1-yl)methyl)-1,7-naphthyridin-8-yl)amino)-2,2′-dimethyl-[1,1′-biphenyl]-3-yl)benzo[d]oxazol-5-yl)methyl)-L-proline] were 3.4 nM, 19.9 µg·h/mL, 1630 ng/mL, 2 h and 3.63 h.
Taken in the same sequence, the figures for `Cc1c(-c2ccc(CN3CCCC3)c(F)c2)cccc1-c1cccc(-c2nc3cc(CN4CCC[C@H]4C(=O)O)c(OC(F)F)cc3o2)c1C` [Example 243, ((6-(difluoromethoxy)-2-(3″-fluoro-2,2′-dimethyl-4″-(pyrrolidin-1-ylmethyl)-[1,1′:3′,1″-terphenyl]-3-yl)benzo[d]oxazol-5-yl)methyl)-L-proline] were 2.5 nM, 67.4 µg·h/mL, 4890 ng/mL, 1 h and 6.93 h.

These data come from patent US12187713B2, “Immunomodulators, compositions and methods thereof” (Betta Pharmaceuticals Co., Ltd, priority 2019, dated 2025).
